From paper PMC6154719 (Molecules : A Journal of Synthetic Chemistry and Natural …, 2017)

Experiments:
Format in all cases: in vitro ADME
UGT = UGT activity in rat liver subcellular fraction; conditions: 100 µM sesquiterpene, control 16.2 ± 0.98
Method: (§1) Enzyme activities were assayed in human and rat liver cytosolic and microsomal fractions. The enzyme assays (each performed in 4–8 replicates) were repeated three times (HPLC measurement of CYP activities was repeated only twice, Table 3). Inhibition studies were carried out by incubation of specific substrates in the presence of sesquiterpenes (in the range 0–100 µM).
(§2) The assays of all other enzymes were based on spectrophotometric detection of product formed or detection of decreasing substrate/cofactor levels using microplate reader Tecan Infinite M200 in cytosolic or microsomal fractions. Enzyme activities were determined using slight modifications of previously-published methods: carbonyl reducing enzymes (AKR1A, AKR1C, CBR1 [45], NQO1 [46]), UDP-glucuronosyltransferase (UGT [47]), sulfotransferase (SULT [48]), and cytosolic glutathione-S-transferase (GST [49]).
(§3) Sesquiterpenes CNER, TNER and FAR, non-volatile liquids, were pipetted, and proper concentration was calculated according to density. All compounds were dissolved in DMSO. The final solvent concentration in the inhibition assays was 1%, which had no effect on the enzyme activity (data not shown). Non-enzymatic interference of sesquiterpenes with some compounds in the reaction mixtures (e.g., fluorescence enhancing or quenching) was considered and excluded. All experiments were performed in three replicates, if not stated otherwise.
(§4) CNER, TNER and FAR at a fixed concentration of 100 µM were screened for inhibition of cytosolic AKR1A1, AKR1C, CBR1, NQO1, SULT, and GST, and microsomal CYPs and UGT. The degree of inhibition caused by sesquiterpenes was compared with non-inhibited control reactions, which contained solvent without sesquiterpenes.

SULT = SULT activity in human liver subcellular fraction; conditions: 100 µM sesquiterpene, control 2.73 ± 0.18
Method: as §1, §2, §3, §4

AKR1A = target: T1, AKR1A (Rattus norvegicus, UniProt P51635); assay: AKR1A activity in rat liver subcellular fraction; conditions: 100 µM sesquiterpene, control 3.60 ± 0.13
T1 construct: Frozen liver (both rat and human) was thawed; from tissue; host or cells: rat liver cytosolic fraction
T1 sequence (P51635 1-325): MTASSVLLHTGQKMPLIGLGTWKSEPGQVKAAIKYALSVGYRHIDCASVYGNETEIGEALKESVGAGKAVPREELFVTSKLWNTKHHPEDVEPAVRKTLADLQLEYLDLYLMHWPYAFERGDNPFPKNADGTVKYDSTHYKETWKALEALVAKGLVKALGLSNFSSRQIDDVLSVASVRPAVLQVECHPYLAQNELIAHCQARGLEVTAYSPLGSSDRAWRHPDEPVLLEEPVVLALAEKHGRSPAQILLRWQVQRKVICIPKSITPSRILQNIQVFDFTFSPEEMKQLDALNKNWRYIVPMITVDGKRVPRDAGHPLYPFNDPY
Method: as §1, §2, §3, §4

CBR1 = target: T2, CBR1 (Rattus norvegicus, UniProt P47727); assay: CBR1 activity in rat liver subcellular fraction; conditions: 100 µM sesquiterpene, control 21.7 ± 1.6
T2 construct: Frozen liver (both rat and human) was thawed; from tissue; host or cells: rat liver cytosolic fraction
T2 sequence (P47727 1-277): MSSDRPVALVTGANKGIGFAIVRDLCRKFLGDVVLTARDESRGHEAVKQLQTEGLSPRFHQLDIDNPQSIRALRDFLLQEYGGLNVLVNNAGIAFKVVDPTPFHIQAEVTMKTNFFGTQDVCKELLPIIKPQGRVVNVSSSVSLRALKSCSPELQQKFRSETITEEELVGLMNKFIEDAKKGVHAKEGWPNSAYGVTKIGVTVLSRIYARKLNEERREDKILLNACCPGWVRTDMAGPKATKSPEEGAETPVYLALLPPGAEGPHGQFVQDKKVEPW
Method: as §1, §2, §3, §4

NQO1 = target: T3, NQO1 (Rattus norvegicus, UniProt P05982); assay: NQO1 activity in rat liver subcellular fraction; conditions: 100 µM sesquiterpene, control 25.3 ± 5.6
T3 construct: Frozen liver (both rat and human) was thawed; from tissue; host or cells: rat liver cytosolic fraction
T3 sequence (P05982 2-274 limits assumed): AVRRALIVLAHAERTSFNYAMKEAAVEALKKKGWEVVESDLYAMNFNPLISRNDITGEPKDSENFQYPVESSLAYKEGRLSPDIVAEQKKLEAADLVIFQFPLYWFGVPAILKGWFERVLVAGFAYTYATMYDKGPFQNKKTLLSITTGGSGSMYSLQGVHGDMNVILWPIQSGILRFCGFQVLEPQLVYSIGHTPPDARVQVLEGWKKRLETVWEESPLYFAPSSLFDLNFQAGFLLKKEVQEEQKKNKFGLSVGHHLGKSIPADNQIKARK
Method: as §1, §2, §3, §4

AKR1C = AKR1C activity in human liver subcellular fraction; conditions: 100 µM sesquiterpene, control 23.5 ± 2.4
Method: as §1, §2, §3, §4

CYP2B/3A = CYP2B/3A (BROD activity, benzyloxyresorufin O-debenzylation) in human liver microsomes; conditions: for Specific Activity, CYP2B/3A (BROD activity): in the presence of 100 µM sesquiterpene, control 1.22 ± 0.05; for inhibition at 5 µM: liver microsomes, human, 5 µM inhibitor; for inhibition at 5 µM / IC50: probe benzyloxyresorufin
Method: as §1
Enzyme activities of individual CYP forms were measured according to established protocols. The following microsomal CYP activities were tested: CYP2A6, coumarin 7-hydroxylation; CYP2B6, 7-ethoxy-4-(trifluoromethyl)coumarin 7-deethylation, CYP2C9, diclofenac 4′-hydroxylation, CYP2C19 assay, S-mephenytoin 4′-hydroxylation, CYP2D6 on bufuralol 1′-hydroxylation, CYP2E1, chlorzoxazone 6-hydroxylation and CYP3A4, testosterone 6β-hydroxylation, and midazolam 1′-hydroxylation. Activities were measured using the Prominence HPLC system (Shimadzu, Kyoto, Japan), equipped with a LiChroCART 250-4 LiChrospher 100 RP-18 column or Chromolith®HighResolution RP-18 end-capped column (Merck, Darmstadt, Germany) and UV or fluorescence detection, according to the cited literature. Further incubation details are described either in the corresponding references, as well as in the papers from this laboratory e.g., [42, 43, 44]. CYP1A2, 7-ethoxyresorufin O-deethylation, and CYP3A4/2B6 (human), CYP2B1 (rat), benzyloxyresorufin O-debenzylation were measured using the microplate reader Tecan Infinite M200 (Tecan Group; Mannedorf, Switzerland).
as §3, §4
The concentration of sesquiterpenes required for 50% inhibition of enzyme activity, the IC50 value, was determined. Their final concentrations in the reaction mixture were proposed to cover the entire inhibitory range of these compounds (1–100 µM). The IC50 values for each sesquiterpene were determined by plotting sigmoidal dose response curves of specific enzyme activity vs. logarithm of sesquiterpene concentration using GraphPad Prism version 6.07 for Windows (GraphPad Software Inc., La Jolla, CA, USA).
The kinetic inactivation study of the CYP1A2 (EROD activity) and CYP2B/3A (BROD activity), both in rat and human, with TNER, was performed to find out the mechanism of enzyme inhibition by this sesquiterpene. Mechanism of EROD and BROD inhibition was tested at the final ethoxyresorufin or benzyloxyresorufin concentrations 0.5–5.0 µM. The concentration of TNER was 5.0 µM.
Experimental data were fitted to the Michaelis-Menten equation, basic kinetic parameters were determined using the program GraphPad Prism version 6.07 for Windows. The type of inhibition was estimated using a Lineweaver-Burk (double-reciprocal) plot.

Row | Structure (SMILES) | Specific activity, UGT (UGT) [nmol/mg/min] | Specific activity, SULT (SULT) [nmol/mg/min] | Specific activity, AKR1A (AKR1A) [nmol/mg/min] | Specific activity, CBR1 (CBR1) [nmol/mg/min] | Specific activity, NQO1 (NQO1) [nmol/mg/min] | Specific activity, AKR1C (AKR1C) [nmol/mg/min] | K’M (CYP2B/3A; human liver microsomes, benzyloxyresorufin 0.5–5.0 µM in the presence of TNER 5 µM, KM without TNER 0.93 ± 0.22) [µM] | V’MAX (CYP2B/3A; human liver microsomes, benzyloxyresorufin 0.5–5.0 µM in the presence of TNER 5 µM, VMAX without TNER 2.27 ± 0.17) [nM/min] | Specific Activity, CYP2B/3A (BROD activity) (CYP2B/3A; human liver microsomes) [pmol/mg/min] | type of inhibition, BROD activity (CYP2B/3A; human microsomes, 5 µM TNER, benzyloxyresorufin 0.5–5.0 µM) | inhibition at 5 µM (CYP2B/3A) [%] | IC50 (CYP2B/3A; human liver microsomes) [nM]
1 | C=CC(C)(O)CC/C=C(\C)CCC=C(C)C (stereo not drawn) [TNER, trans-nerolidol] | 16.4 ± 2.46 | 3.20 ± 0.26 | 3.71 ± 0.56 | 20.5 ± 1.6 | 21.8 ± 2.4 | 21.4 ± 1.0 | 0.94 ± 0.39 | 0.74 ± 0.10 | 0.188 ± 0.005 | non-competitive | 68 | 2400
2 | CC(C)=CCC/C(C)=C/CC/C(C)=C/CO [FAR, farnesol] | 14.3 ± 3.15 | 2.72 ± 0.23 | 3.48 ± 0.32 | 21.1 ± 1.4 | 22.2 ± 3.3 | 24.0 ± 1.5 |  |  | 0.033 ± 0.004 |  | 85 | 1780
3 | C=CC(C)(O)CC/C=C(/C)CCC=C(C)C (stereo not drawn) [CNER, cis-nerolidol] | 15.9 ± 1.11 | 3.12 ± 0.29 | 3.86 ± 0.47 | 19.5 ± 1.4 | 21.7 ± 3.6 | 22.7 ± 1.5 |  |  | 0.168 ± 0.007 |  | 71 | 1320
